{
  "source": "paper PMC7914897",
  "about": "“Cytotoxic Potential of a-Azepano- and 3-Amino-3,4-SeCo-Triterpenoids” (International Journal of Molecular Sciences, 2021)",
  "key": {"[1]": {"test_system": "SR (Leukemia)", "assay": "NCI-60 screen (SRB, 48 h)", "format": "cell-based", "settings": "Homo sapiens"}, "[2]": {"test_system": "MDA-MB-435 (Melanoma)", "assay": "NCI-60 screen (SRB, 48 h)", "format": "cell-based", "settings": "Homo sapiens"}, "[3]": {"test_system": "Leukemia subpanel", "assay": "cells", "settings": "Homo sapiens"}, "[4]": {"test_system": "OVCAR-3 (Ovarian cancer)", "assay": "cells", "settings": "Homo sapiens"}, "[5]": {"test_system": "Melanoma subpanel", "assay": "NCI-60 screen, subpanel", "settings": "Homo sapiens"}, "[6]": {"test_system": "Prostate cancer subpanel", "assay": "NCI-60 screen, subpanel", "settings": "Homo sapiens"}, "[7]": {"test_system": "CCRF-CEM (Leukemia)", "assay": "NCI-60 screen (SRB, 48 h)", "settings": "Homo sapiens"}, "[8]": {"test_system": "K-562 (Leukemia)", "assay": "NCI-60 screen (SRB, 48 h)", "settings": "Homo sapiens"}, "[9]": {"test_system": "MOLT-4 (Leukemia)", "assay": "NCI-60 screen (SRB, 48 h)", "settings": "Homo sapiens"}, "[10]": {"test_system": "RPMI-8226 (Leukemia)", "assay": "NCI-60 screen (SRB, 48 h)", "settings": "Homo sapiens"}, "[11]": {"test_system": "HOP-92 (NSC lung cancer)", "assay": "NCI-60 screen (SRB, 48 h)", "settings": "Homo sapiens"}, "[12]": {"test_system": "NCI-H226 (NSC lung cancer)", "assay": "NCI-60 screen (SRB, 48 h)", "settings": "Homo sapiens"}, "[13]": {"test_system": "COLO 205 (Colon cancer)", "assay": "NCI-60 screen (SRB, 48 h)", "settings": "Homo sapiens"}, "[14]": {"test_system": "HCC-2998 (Colon cancer)", "assay": "NCI-60 screen (SRB, 48 h)", "settings": "Homo sapiens"}, "[15]": {"test_system": "HCT-15 (Colon cancer)", "assay": "NCI-60 screen (SRB, 48 h)", "settings": "Homo sapiens"}, "[16]": {"test_system": "HT29 (Colon cancer)", "assay": "NCI-60 screen (SRB, 48 h)", "settings": "Homo sapiens"}, "[17]": {"test_system": "KM12 (Colon cancer)", "assay": "NCI-60 screen (SRB, 48 h)", "settings": "Homo sapiens"}, "[18]": {"test_system": "SW-620 (Colon cancer)", "assay": "NCI-60 screen (SRB, 48 h)", "settings": "Homo sapiens"}, "[19]": {"test_system": "SNB-19 (CNS cancer)", "assay": "NCI-60 screen (SRB, 48 h)", "settings": "Homo sapiens"}, "[20]": {"test_system": "MALME-3M (Melanoma)", "assay": "NCI-60 screen (SRB, 48 h)", "settings": "Homo sapiens"}, "[21]": {"test_system": "SK-MEL-5 (Melanoma)", "assay": "NCI-60 screen (SRB, 48 h)", "settings": "Homo sapiens"}, "[22]": {"test_system": "UACC-257 (Melanoma)", "assay": "NCI-60 screen (SRB, 48 h)", "settings": "Homo sapiens"}, "[23]": {"test_system": "IGROV1 (Ovarian cancer)", "assay": "NCI-60 screen (SRB, 48 h)", "settings": "Homo sapiens"}, "[24]": {"test_system": "TK-10 (Renal cancer)", "assay": "NCI-60 screen (SRB, 48 h)", "settings": "Homo sapiens"}, "[25]": {"test_system": "UO-31 (Renal cancer)", "assay": "NCI-60 screen (SRB, 48 h)", "settings": "Homo sapiens"}, "[26]": {"test_system": "DU-145 (Prostate cancer)", "assay": "NCI-60 screen (SRB, 48 h)", "settings": "Homo sapiens"}, "[27]": {"test_system": "MCF7 (Breast cancer)", "assay": "NCI-60 screen (SRB, 48 h)", "settings": "Homo sapiens"}, "[28]": {"test_system": "HS 578T (Breast cancer)", "assay": "NCI-60 screen (SRB, 48 h)", "settings": "Homo sapiens"}, "[29]": {"test_system": "T-47D (Breast cancer)", "assay": "NCI-60 screen (SRB, 48 h)", "settings": "Homo sapiens, T47D"}},
  "data": [
    {"smiles": "Cc1ccc(S(=O)(=O)OC[C@]23CCC(C)(C)C[C@H]2C2=CC[C@@H]4[C@@]5(C)CCCNC(C)(C)[C@@H]5CC[C@@]4(C)[C@]2(C)CC3)cc1", "note": "[Compound 15]", "values": [
      {"measurement": "GI50", "setting": "[1]", "value": 340, "unit": "nM"},
      {"measurement": "CC50", "setting": "[1]; read-out: LC50 (the source's name)", "value": "> 100000", "unit": "nM"},
      {"measurement": "GI50", "setting": "[2]; MDA-MB-435", "value": 1610, "unit": "nM"},
      {"measurement": "IC (TGI)", "setting": "[2]; MDA-MB-435, 48 h, read-out: TGI", "value": 2970, "unit": "nM"},
      {"measurement": "IC (TGI)", "setting": "[3]; 48 h, read-out: TGI MG_MID", "value": 4240, "unit": "nM"},
      {"measurement": "GI50", "setting": "[3]; read-out: GI50 MG_MID", "value": 1570, "unit": "nM"},
      {"measurement": "CC50", "setting": "[3]; read-out: LC50 MG_MID", "value": "> 100000", "unit": "nM"},
      {"measurement": "GI50", "setting": "[4]; OVCAR-3", "value": 1840, "unit": "nM"},
      {"measurement": "IC (TGI)", "setting": "[4]; OVCAR-3, 48 h, read-out: TGI", "value": 3510, "unit": "nM"},
      {"measurement": "IC (TGI)", "setting": "[5]; 48 h, read-out: TGI MG_MID", "value": 3530, "unit": "nM"},
      {"measurement": "GI50", "setting": "[5]; read-out: GI50 MG_MID", "value": 1810, "unit": "nM"},
      {"measurement": "CC50", "setting": "[5]; read-out: LC50 MG_MID", "value": 16400, "unit": "nM"},
      {"measurement": "IC (TGI)", "setting": "[6]; 48 h, read-out: TGI MG_MID", "value": 3270, "unit": "nM"},
      {"measurement": "GI50", "setting": "[6]; read-out: GI50 MG_MID", "value": 1720, "unit": "nM"},
      {"measurement": "CC50", "setting": "[6]; read-out: LC50 MG_MID", "value": 6350, "unit": "nM"},
      {"measurement": "GI50", "setting": "[7]", "value": 1930, "unit": "nM"},
      {"measurement": "CC50", "setting": "[7]; read-out: LC50", "value": "> 100000", "unit": "nM"},
      {"measurement": "GI50", "setting": "[8]; K562", "value": 1750, "unit": "nM"},
      {"measurement": "CC50", "setting": "[8]; K562, read-out: LC50", "value": "> 100000", "unit": "nM"},
      {"measurement": "GI50", "setting": "[9]; MOLT-4", "value": 1550, "unit": "nM"},
      {"measurement": "CC50", "setting": "[9]; MOLT-4, read-out: LC50", "value": "> 100000", "unit": "nM"},
      {"measurement": "GI50", "setting": "[10]; RPMI-8226", "value": 2030, "unit": "nM"},
      {"measurement": "IC (TGI)", "setting": "[10]; RPMI-8226, 48 h, read-out: TGI", "value": 4420, "unit": "nM"},
      {"measurement": "GI50", "setting": "[11]; HOP-92", "value": 1350, "unit": "nM"},
      {"measurement": "IC (TGI)", "setting": "[11]; HOP-92, 48 h, read-out: TGI", "value": 2800, "unit": "nM"},
      {"measurement": "GI50", "setting": "[12]; NCI-H226", "value": 1710, "unit": "nM"},
      {"measurement": "IC (TGI)", "setting": "[12]; NCI-H226, 48 h, read-out: TGI", "value": 3770, "unit": "nM"},
      {"measurement": "GI50", "setting": "[13]; COLO 205", "value": 1630, "unit": "nM"},
      {"measurement": "IC (TGI)", "setting": "[13]; COLO 205, 48 h, read-out: TGI", "value": 3190, "unit": "nM"},
      {"measurement": "GI50", "setting": "[14]; HCC 2998", "value": 1630, "unit": "nM"},
      {"measurement": "IC (TGI)", "setting": "[14]; HCC 2998, 48 h, read-out: TGI", "value": 3210, "unit": "nM"},
      {"measurement": "GI50", "setting": "[15]; HCT-15", "value": 1650, "unit": "nM"},
      {"measurement": "IC (TGI)", "setting": "[15]; HCT-15, 48 h, read-out: TGI", "value": 3200, "unit": "nM"},
      {"measurement": "GI50", "setting": "[16]; HT-29", "value": 1640, "unit": "nM"},
      {"measurement": "IC (TGI)", "setting": "[16]; HT-29, 48 h, read-out: TGI", "value": 3230, "unit": "nM"},
      {"measurement": "GI50", "setting": "[17]; KM12", "value": 1820, "unit": "nM"},
      {"measurement": "IC (TGI)", "setting": "[17]; KM12, 48 h, read-out: TGI", "value": 3330, "unit": "nM"},
      {"measurement": "GI50", "setting": "[18]; SW-620", "value": 1730, "unit": "nM"},
      {"measurement": "IC (TGI)", "setting": "[18]; SW-620, 48 h, read-out: TGI", "value": 3360, "unit": "nM"},
      {"measurement": "GI50", "setting": "[19]; SNB-19", "value": 1720, "unit": "nM"},
      {"measurement": "IC (TGI)", "setting": "[19]; SNB-19, 48 h, read-out: TGI", "value": 3540, "unit": "nM"},
      {"measurement": "GI50", "setting": "[20]", "value": 1770, "unit": "nM"},
      {"measurement": "IC (TGI)", "setting": "[20]; 48 h, read-out: TGI", "value": 3560, "unit": "nM"},
      {"measurement": "GI50", "setting": "[21]; SK-MEL-5", "value": 1900, "unit": "nM"},
      {"measurement": "IC (TGI)", "setting": "[21]; SK-MEL-5, 48 h, read-out: TGI", "value": 3680, "unit": "nM"},
      {"measurement": "GI50", "setting": "[22]; UACC-257", "value": 1850, "unit": "nM"},
      {"measurement": "IC (TGI)", "setting": "[22]; UACC-257, 48 h, read-out: TGI", "value": 3540, "unit": "nM"},
      {"measurement": "GI50", "setting": "[23]; IGROV-1", "value": 1410, "unit": "nM"},
      {"measurement": "IC (TGI)", "setting": "[23]; IGROV-1, 48 h, read-out: TGI", "value": 3080, "unit": "nM"},
      {"measurement": "GI50", "setting": "[24]; TK-10", "value": 1770, "unit": "nM"},
      {"measurement": "IC (TGI)", "setting": "[24]; TK-10, 48 h, read-out: TGI", "value": 3330, "unit": "nM"},
      {"measurement": "CC50", "setting": "[24]; TK-10, read-out: LC50", "value": 6270, "unit": "nM"},
      {"measurement": "GI50", "setting": "[25]; UO-31", "value": 1290, "unit": "nM"},
      {"measurement": "IC (TGI)", "setting": "[25]; UO-31, 48 h, read-out: TGI", "value": 2680, "unit": "nM"},
      {"measurement": "CC50", "setting": "[25]; UO-31, read-out: LC50", "value": 5580, "unit": "nM"},
      {"measurement": "GI50", "setting": "[26]; DU-145", "value": 1790, "unit": "nM"},
      {"measurement": "IC (TGI)", "setting": "[26]; DU-145, 48 h, read-out: TGI", "value": 3370, "unit": "nM"},
      {"measurement": "CC50", "setting": "[26]; DU-145, read-out: LC50", "value": 6350, "unit": "nM"},
      {"measurement": "GI50", "setting": "[27]; MCF7", "value": 1620, "unit": "nM"},
      {"measurement": "IC (TGI)", "setting": "[27]; MCF7, 48 h, read-out: TGI", "value": 3380, "unit": "nM"},
      {"measurement": "GI50", "setting": "[28]", "value": 1820, "unit": "nM"},
      {"measurement": "IC (TGI)", "setting": "[28]; 48 h, read-out: TGI", "value": 4080, "unit": "nM"},
      {"measurement": "CC50", "setting": "[28]; read-out: LC50", "value": 9140, "unit": "nM"},
      {"measurement": "GI50", "setting": "[29]", "value": 1670, "unit": "nM"},
      {"measurement": "IC (TGI)", "setting": "[29]; 48 h, read-out: TGI", "value": 3310, "unit": "nM"}
    ]}
  ]
}
